Active and inactive are the calls of the source.
Experiments:
[1] = target: Peroxisome proliferator-activated receptor gamma/Nuclear receptor coactivator 3 (Homo sapiens, UniProt P37231); test: TR-FRET dose response biochemical High Throughput Screening assay for agonists of the steroid receptor coactivator 3 (SRC-3) recruitment by the peroxisome proliferator-activated receptor gamma (PPAR gamma): non-selective agonists. [Related pubchem assays: 1301 (Confirmation screen.), 1048 (Primary screen.)]; type: functional
[2] = target: Peroxisome proliferator-activated receptor gamma/Nuclear receptor coactivator 2 (Homo sapiens, UniProt P37231); test: (§1) TR-FRET dose response biochemical High Throughput Screening assay for agonists of the steroid receptor coactivator 2 (SRC-2) recruitment by the peroxisome proliferator-activated receptor gamma (PPAR gamma): non-selective agonists. [Related pubchem assays: 1297, 1032 ]; type: functional
[3] = target: Peroxisome proliferator-activated receptor gamma/Nuclear receptor corepressor 2 (Homo sapiens, UniProt P37231+Q9Y618); type: functional
[4] = target: Peroxisome proliferator-activated receptor gamma/Nuclear receptor coactivator 1 (Homo sapiens, UniProt P37231); test: as §1, with “1 (SRC-1)” for “2 (SRC-2)”, “assays (depositor defined):AID1300, AID1808, AID504735, AID631]” for “assays: 1297, 1032 ]”; type: protein assay
[5] = target: Photoreceptor-specific nuclear receptor (Homo sapiens, UniProt Q9Y5X4); type: functional;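 further: potency for compounds that break the NR2E3 corepressor complex and count as activators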
[6] = target: T1, CAAX prenyl protease 2 (Homo sapiens, UniProt Q9Y256); test: human Rce1 protease inhibitors, dose response, biochemical, yeast membranes, quenched-peptide fluorescence, cherry-pick (AID 588849)
T1 sequence (Q9Y256 whole entry): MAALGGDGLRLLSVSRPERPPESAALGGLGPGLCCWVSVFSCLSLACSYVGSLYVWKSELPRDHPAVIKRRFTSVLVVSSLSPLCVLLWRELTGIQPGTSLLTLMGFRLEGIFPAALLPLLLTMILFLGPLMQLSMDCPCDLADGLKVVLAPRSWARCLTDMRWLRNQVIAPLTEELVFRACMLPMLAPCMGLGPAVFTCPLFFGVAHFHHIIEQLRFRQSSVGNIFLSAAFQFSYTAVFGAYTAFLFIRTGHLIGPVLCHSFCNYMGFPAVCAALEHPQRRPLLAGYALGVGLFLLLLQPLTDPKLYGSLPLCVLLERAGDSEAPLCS

[7] = target: CAAX prenyl protease 2 (Saccharomyces cerevisiae S288c, UniProt Q03530); type: biochemical
[8] = target: Trypsin (Sus scrofa, UniProt P00761); test: porcine trypsin inhibitors, dose response, selectivity assay for Rce1 protease inhibitor project, biochemical, quenched peptide fluorescence, cherry-pick (AID 488789)
[9] = A Cell Based Secondary Assay To Explore Cytotoxicity of Compounds that Sensitize Mycobacterium Tuberculosis to Beta-Lactam Antibiotics.; type: functional
[10] = target: Hexokinase (Trypanosoma brucei, UniProt Q38C41); test: Confirmation assay for inhibitors of Trypanosoma brucei hexokinase 1-Analogue-first series. [Related pubchem assays (depositor defined):AID1430, AID1632, AID2516, AID2560, AID2579, AID2600, AID449725, AID492951]; type: functional
[11] = target: Induced myeloid leukemia cell differentiation protein Mcl-1 (Homo sapiens, UniProt Q07820); type: functional
[12] = target: T2, Voltage-gated N-type calcium channel alpha-1B subunit/Amyloid beta A4 precursor protein-binding family A member 1 (Homo sapiens, UniProt Q00975+Q02410); type: protein assay
[13] = target: T2, Voltage-gated N-type calcium channel alpha-1B subunit/Amyloid beta A4 precursor protein-binding family A member 1; type: protein assay; remark: listed apart in the source

T2 sequence (Q00975 whole entry): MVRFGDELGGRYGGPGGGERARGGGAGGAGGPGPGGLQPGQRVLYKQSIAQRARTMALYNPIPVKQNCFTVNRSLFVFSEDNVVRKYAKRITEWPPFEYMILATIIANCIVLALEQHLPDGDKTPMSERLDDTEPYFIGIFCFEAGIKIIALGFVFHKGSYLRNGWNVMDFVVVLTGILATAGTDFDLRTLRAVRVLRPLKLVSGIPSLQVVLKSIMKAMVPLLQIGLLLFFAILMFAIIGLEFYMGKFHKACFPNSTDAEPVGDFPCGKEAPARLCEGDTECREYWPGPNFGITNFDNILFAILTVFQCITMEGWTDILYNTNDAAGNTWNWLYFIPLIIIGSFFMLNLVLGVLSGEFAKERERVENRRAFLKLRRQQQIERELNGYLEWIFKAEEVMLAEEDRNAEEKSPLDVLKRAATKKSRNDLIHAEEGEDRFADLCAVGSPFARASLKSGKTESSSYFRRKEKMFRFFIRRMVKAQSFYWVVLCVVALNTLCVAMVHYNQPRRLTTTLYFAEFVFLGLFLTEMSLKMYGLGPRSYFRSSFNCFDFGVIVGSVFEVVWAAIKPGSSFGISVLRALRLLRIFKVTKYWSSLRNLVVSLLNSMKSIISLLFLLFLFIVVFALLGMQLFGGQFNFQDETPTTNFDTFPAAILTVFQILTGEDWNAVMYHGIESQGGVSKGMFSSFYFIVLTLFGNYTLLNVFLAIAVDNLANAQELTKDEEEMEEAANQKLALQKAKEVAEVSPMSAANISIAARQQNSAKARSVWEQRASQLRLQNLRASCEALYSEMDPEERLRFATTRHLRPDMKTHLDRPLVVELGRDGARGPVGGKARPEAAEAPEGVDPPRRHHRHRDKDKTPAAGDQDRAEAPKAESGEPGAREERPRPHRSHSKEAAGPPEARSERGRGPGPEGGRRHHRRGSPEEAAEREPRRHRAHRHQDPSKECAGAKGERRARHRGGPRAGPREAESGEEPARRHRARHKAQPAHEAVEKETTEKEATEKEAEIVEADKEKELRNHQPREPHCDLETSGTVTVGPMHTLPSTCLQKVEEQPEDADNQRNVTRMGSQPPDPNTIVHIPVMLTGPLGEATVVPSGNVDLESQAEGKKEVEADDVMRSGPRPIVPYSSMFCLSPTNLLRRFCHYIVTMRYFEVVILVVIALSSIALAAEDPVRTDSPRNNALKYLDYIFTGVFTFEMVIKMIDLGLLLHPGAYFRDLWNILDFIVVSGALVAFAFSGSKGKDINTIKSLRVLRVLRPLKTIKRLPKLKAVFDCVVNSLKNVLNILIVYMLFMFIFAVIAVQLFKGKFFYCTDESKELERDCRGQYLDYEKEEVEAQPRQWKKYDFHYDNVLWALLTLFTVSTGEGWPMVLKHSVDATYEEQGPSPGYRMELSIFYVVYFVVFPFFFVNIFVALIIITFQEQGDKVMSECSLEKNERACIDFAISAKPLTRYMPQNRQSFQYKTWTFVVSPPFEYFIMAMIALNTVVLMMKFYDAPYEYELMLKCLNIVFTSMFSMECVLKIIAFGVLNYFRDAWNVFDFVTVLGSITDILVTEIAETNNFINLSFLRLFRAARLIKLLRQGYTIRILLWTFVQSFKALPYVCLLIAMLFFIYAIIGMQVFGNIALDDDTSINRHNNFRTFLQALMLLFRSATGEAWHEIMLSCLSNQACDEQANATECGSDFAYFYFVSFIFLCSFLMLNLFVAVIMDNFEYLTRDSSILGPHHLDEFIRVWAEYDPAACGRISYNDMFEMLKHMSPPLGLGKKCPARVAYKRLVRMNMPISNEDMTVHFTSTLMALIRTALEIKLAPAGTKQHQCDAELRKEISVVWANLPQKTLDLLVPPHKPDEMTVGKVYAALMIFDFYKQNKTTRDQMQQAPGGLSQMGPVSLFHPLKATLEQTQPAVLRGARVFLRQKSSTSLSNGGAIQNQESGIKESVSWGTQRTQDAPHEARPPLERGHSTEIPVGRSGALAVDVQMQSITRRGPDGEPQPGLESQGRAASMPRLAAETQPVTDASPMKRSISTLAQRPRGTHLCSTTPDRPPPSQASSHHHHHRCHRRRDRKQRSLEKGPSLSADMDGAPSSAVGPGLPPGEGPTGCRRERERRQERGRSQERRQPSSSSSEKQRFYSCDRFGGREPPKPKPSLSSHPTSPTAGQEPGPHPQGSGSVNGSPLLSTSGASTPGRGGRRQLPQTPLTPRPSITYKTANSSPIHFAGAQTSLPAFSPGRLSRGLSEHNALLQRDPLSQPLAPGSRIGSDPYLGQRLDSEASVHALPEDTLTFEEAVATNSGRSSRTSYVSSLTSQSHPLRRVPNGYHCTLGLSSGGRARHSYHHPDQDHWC
T2 sequence (Q02410 whole entry): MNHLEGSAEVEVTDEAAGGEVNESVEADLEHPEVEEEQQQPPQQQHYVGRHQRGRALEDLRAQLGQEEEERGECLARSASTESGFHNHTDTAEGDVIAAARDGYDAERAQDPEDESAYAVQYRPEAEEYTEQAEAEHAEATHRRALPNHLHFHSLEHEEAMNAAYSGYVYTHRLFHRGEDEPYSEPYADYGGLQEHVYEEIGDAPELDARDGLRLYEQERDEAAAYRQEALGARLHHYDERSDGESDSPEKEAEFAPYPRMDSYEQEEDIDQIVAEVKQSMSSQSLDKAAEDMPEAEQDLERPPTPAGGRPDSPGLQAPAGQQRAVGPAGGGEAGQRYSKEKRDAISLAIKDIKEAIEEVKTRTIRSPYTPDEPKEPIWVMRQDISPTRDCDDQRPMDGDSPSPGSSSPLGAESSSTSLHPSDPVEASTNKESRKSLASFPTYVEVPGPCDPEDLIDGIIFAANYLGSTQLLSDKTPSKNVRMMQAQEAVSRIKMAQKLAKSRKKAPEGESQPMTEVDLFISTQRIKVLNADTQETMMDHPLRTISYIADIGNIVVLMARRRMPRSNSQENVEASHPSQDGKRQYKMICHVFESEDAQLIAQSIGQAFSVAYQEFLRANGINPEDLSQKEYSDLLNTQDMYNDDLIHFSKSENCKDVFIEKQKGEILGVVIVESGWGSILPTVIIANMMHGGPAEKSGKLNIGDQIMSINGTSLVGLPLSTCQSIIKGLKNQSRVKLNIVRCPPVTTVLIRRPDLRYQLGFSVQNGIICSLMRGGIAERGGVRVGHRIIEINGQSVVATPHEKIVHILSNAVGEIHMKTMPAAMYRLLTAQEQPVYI
Chain of Trypsin (P00761 whole entry): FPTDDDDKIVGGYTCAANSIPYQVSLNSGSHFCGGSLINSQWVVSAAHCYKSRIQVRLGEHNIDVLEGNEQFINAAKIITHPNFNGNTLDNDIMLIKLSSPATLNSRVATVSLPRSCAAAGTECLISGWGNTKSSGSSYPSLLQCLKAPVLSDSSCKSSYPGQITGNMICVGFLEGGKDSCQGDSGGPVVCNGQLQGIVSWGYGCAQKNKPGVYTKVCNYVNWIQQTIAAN
Chain of Induced myeloid leukemia cell differentiation protein Mcl-1 (Q07820 whole entry): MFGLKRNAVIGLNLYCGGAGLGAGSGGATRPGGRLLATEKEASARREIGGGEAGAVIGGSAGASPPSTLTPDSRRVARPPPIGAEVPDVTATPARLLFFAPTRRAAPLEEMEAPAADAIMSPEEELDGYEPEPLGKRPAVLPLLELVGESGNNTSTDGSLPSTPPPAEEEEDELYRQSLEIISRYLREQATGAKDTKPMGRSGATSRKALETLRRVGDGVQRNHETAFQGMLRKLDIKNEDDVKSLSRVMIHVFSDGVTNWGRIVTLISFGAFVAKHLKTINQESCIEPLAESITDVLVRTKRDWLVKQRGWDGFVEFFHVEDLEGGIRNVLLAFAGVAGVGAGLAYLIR
Chain of Photoreceptor-specific nuclear receptor (Q9Y5X4 whole entry): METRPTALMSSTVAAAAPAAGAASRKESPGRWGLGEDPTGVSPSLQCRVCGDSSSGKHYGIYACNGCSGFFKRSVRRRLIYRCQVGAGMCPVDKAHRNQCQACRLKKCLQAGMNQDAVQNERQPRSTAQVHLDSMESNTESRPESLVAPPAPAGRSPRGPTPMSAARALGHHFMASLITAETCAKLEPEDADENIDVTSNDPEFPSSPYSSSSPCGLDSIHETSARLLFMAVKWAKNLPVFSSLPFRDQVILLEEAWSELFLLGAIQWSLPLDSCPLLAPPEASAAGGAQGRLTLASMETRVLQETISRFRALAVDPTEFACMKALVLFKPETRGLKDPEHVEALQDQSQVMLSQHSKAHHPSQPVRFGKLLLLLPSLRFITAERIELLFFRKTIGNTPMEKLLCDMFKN
Chain of CAAX prenyl protease 2 (Saccharomyces cerevisiae S288c, UniProt Q03530) (Q03530 whole entry): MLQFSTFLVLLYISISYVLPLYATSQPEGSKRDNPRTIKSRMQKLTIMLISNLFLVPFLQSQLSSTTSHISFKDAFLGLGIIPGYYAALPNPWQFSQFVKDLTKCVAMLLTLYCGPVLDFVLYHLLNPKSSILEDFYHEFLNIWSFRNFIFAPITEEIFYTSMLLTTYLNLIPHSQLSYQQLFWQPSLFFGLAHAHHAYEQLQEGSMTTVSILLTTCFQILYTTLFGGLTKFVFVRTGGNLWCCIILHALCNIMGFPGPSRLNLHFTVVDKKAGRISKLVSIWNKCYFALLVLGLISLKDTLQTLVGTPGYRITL
Chain of Hexokinase (Q38C41 whole entry): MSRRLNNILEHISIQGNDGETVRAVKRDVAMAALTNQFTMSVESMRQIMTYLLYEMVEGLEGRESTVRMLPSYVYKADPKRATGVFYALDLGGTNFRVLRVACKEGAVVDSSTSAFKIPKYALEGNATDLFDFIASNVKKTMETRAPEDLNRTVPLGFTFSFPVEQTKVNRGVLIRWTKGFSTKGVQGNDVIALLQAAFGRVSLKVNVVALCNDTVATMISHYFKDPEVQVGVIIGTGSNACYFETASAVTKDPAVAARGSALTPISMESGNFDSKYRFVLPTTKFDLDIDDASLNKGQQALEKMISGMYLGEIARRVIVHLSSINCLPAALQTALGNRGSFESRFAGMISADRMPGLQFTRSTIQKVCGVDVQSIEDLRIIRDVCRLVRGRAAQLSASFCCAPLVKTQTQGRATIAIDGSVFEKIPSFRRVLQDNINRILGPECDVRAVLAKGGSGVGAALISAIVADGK

Question: With O=C(Nc1nc(-c2cccs2)c(C(=O)C(F)(F)F)s1)c1ccco1 as the compound, how does the EC50 [1] read?
Answer: Its EC50 is > 79.4 µM (not active).

Question: What about the EC50 [2] of the same compound?
Answer: The EC50 was 50 µM (not active).

Question: And the IC50 [3]?
Answer: Its IC50 is 2.22 µM (active).

Question: And the EC50 [4]?
Answer: Its EC50 is > 79.4 µM (inactive).

Question: What about the IC50 [5] of the same compound?
Answer: Its IC50 is > 39.8 µM (not active).

Question: With Cc1cc(C)cc(Nc2ccc(C(=O)O)cc2N)c1 as the compound, how does the AC50 [6] read?
Answer: Its AC50 is 3.8 µM (active).

Question: And the AC50 [7]?
Answer: The AC50 was 84.5 µM (active).

Question: And the AC50 [8]?
Answer: The AC50 was 2.73 µM (active).

Question: For Cc1ccc(C(C)C)c(OCc2ccc(C(=O)N/N=C/c3ccc(C(=O)O)cc3)cc2)c1, which CC50 [9] is on record?
Answer: The CC50 was > 40 µM (active).

Question: With O=C(O)c1ccccc1NC(=O)c1ccccc1C(=O)O as the compound, how does the IC50 [10] read?
Answer: The IC50 was > 25 µM (inactive).

Question: With Cc1ccc(-c2nc3c(c(=O)[nH]c(=O)n3Cc3ccccc3)n2C)o1 as the compound, how does the IC50 [11] read?
Answer: Its IC50 is 4.71 µM (active).

Question: And the IC50 [12]?
Answer: The IC50 was 6.07 µM (active).

Question: What about the IC50 [13] of the same compound?
Answer: Its IC50 is 6.21 µM (active).
